The structures appear in SMILES notation. Values after ≈ are worked out from the molar mass of the structure shown. Where two headings read alike, the source gives them in different places.

This is an account of results in publication PMC5063506, “A Novel Class of Small Molecule Agonists with Preference for Human over Mouse TLR4 Activation” (PLoS ONE, 2016).

For data set [1], the target named is T1, human TLR4 (Homo sapiens, UniProt O00206+Q9Y6Y9).
T1 construct: expressed in transfected cells; host or cells: HEK293 with stably integrated pNiFty2-SEAP reporter
T1 sequence (O00206 24-839): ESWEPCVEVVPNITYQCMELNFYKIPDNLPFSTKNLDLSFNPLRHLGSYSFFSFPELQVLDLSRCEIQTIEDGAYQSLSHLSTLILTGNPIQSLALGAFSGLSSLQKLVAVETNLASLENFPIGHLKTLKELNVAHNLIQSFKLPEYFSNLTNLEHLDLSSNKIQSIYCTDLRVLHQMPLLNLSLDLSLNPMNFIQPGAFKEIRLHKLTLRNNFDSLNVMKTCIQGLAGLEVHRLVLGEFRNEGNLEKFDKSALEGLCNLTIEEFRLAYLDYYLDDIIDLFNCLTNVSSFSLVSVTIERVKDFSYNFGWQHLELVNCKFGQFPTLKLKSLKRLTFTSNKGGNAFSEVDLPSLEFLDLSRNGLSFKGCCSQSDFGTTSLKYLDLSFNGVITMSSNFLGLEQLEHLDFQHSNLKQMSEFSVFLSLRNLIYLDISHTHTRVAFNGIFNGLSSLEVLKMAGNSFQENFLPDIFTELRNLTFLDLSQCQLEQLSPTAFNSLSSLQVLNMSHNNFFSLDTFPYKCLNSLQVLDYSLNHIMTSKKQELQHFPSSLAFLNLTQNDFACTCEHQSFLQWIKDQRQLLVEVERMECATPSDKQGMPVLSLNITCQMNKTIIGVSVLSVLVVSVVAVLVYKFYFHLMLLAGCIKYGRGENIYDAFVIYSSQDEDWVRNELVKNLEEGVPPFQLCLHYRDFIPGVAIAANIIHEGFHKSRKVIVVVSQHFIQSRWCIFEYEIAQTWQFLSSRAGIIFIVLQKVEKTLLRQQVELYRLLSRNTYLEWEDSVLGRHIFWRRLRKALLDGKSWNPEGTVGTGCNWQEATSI
T1 sequence (Q9Y6Y9 19-160): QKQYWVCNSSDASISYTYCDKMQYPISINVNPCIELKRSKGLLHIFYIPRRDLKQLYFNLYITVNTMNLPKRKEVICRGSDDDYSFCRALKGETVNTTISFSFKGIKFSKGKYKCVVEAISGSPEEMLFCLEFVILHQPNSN
Description: Human TLR4 NFκB SEAP reporter gene assay in hTLR4-transfected HEK293 cells. The class given is cell-based. As to conditions: for EC50: NFκB SEAP reporter, hTLR4-transfected HEK293 cells, 20 h, read-out: Human TLR4 pEC50 (converted). On the procedure:
(§1) HEK293 cells stably transfected with pNiFty2-SEAP reporter plasmid were transiently transfected with either human or mouse TLR4 (pUNO expression vector), in combination with either human or mouse CD14/MD2 (pDUO expression vector). Transient transfectants were seeded in Dulbecco’s Modified Eagle Medium, FCS 10% (v/v), 2 mM l glutamine and non-essential amino acids. Cells were seeded in tissue culture treated clear flat bottom polystyrene 96 well plates (Costar, 3598) at 1e4 cells/well. Concentration-response curves were generated by addition of test compounds and incubation for 20 h at 37°C in an atmosphere of 5% CO2. LPS (E. coli 0111:B4, Ultra-pure, Invivogen) or PHAD (Avanti Polar Lipids) was used as a positive control. The SEAP released was quantified using p nitrophenyl phosphate as a substrate, and the absorbance at 405 nm was measured at 30 second intervals over several minutes using a microplate reader. Some data are recorded as the pEC50, the negative log of the EC50 value. Other data generated from these reporter cell lines were converted to AUC (area under the curve) values by interpolation of fitted cubic spline curve between OD value and log concentration levels. The calculation is performed using MESS package in statistical software R (www.r-project.org/).

Data set [2] in a line: LogD, octanol/water distribution coefficient. The class given is physicochemical. As to conditions: pH 7.4; octanol/water distribution coefficient at pH7.4. From the text:
(§2) Fig 2 Optimization stages of Ugi products as TLR4 agonists. *Human TLR-4 NFκB SEAP reporter assays; protocol as described in Methods. Data are reported as pEC50, or negative log of the EC50 values. **Clint rh / hm represents intrinsic clearance in presence of rat hepatocytes (μL/min/10^6 cells) and human microsomes (μL/min/mg protein). […] Thus a drug molecule with LogD >4 might be considered to be very lipophilic and therefore more likely to suffer from rapid metabolic turnover, poor solubility and receptor promiscuity; whereas a LogD range of 1–3 is more likely to be associated with optimal physicochemical and drug-like properties. ^††Solubility was measured by dissolution of solid samples in buffer at pH 7.4.

The nature of data set [3]: Intrinsic clearance in presence of rat hepatocytes. It is filed as in vitro ADME. As to conditions: read-out: Clint rh (intrinsic clearance, rat hepatocytes).
Text: as §2

Data set [4] is described as follows: Intrinsic clearance in presence of human microsomes. The class given is in vitro ADME. As to conditions: read-out: Clint hm (intrinsic clearance, human microsomes).
Text: as §2

Data set [5] in a line: Solubility by dissolution of solid samples in buffer. It is filed as physicochemical. The settings on record: aqueous buffer, thermodynamic from solid; solid samples in buffer at pH 7.4.
Text: as §2

For data set [6], the target named is T2, human TLR4/MD2 (Homo sapiens, UniProt O00206+Q9Y6Y9).
T2 construct: host or cells: HEK293
T2 sequence (O00206 24-839): as the sequence (O00206 24-839) above
T2 sequence (Q9Y6Y9 19-160): as the sequence (Q9Y6Y9 19-160) above
The experiment in a line: hTLR4/MD2-HEK293 transfectant SEAP (QUANTI-Blue) dose response, AUC. It is filed as cell-based. As to conditions: 1 μg/ml to 4 ng/ml, 24 h, SEAP OD 650 nm vs log concentration. How it is done: as §1, with “Cells” for “HEK293 cells stably transfected with pNiFty2-SEAP reporter plasmid were transiently transfected with either human or mouse TLR4 (pUNO expression vector), in combination with either human or mouse CD14/MD2 (pDUO expression vector). Transient transfectants were seeded in Dulbecco’s Modified Eagle Medium, FCS 10% (v/v), 2 mM l glutamine and non-essential amino acids. Cells”
(§3) Fig 4 Ugi compounds preferentially activate TLR4-HEK transfectants expressing human MD2. A-B) HEK293 cells transfected with human TLR4/MD2 or mouse TLR4/MD2 (InVivogen) were stimulated with TLR4 agonists including MPL, PHAD, and Ugi compounds at 1 μg/ml to 4 ng/ml and with LPS at 25 ng/ml to 64 pg/ml for 24 h. SNs were analyzed for SEAP content by the QUANTI-Blue assay (InVivogen) and analysis at 650 nm by spectrophotometer. AUC (area under the curve) values were calculated as in Methods. No AUC value was calculated for LPS since it was utilized with a different dose range. C) HEK transfectants with cis- or trans-species expression of TLR4, MD2, and CD14 were stimulated with Ugi compounds in a dose response range of 9 μM to 1 nM or with LPS (boxes) at 75 ng/ml to 5 pg/ml for 48 h. Data was obtained as Vmax calculated over the initial linear portion of the kinetic absorbance measurements. The AUC (area under the curve) value for the dose response curve of Vmax vs log10 (molar units) was calculated for each compound using Trapezoidal rule. TEXT PRINTED IN THE PICTURE: (A) MPL: hTLR4-HEK AUC: 0.55 | (A) AZ617: hTLR4-HEK AUC: 5.90 | (A) AZ618: hTLR4-HEK AUC: 6.56 | (A) AZ839: hTLR4-HEK AUC: 6.00 | (A) AZ161: hTLR4-HEK AUC: 5.54 | (A) AZ902: hTLR4-HEK AUC: 7.04 | (A) GLA: hTLR4-HEK AUC: 3.75 | (B) MPL: mTLR4-HEK AUC: 13.27 | (B) AZ617: mTLR4-HEK AUC: 0.89 | (B) AZ618: mTLR4-HEK AUC: 1.03 | (B) AZ839: mTLR4-HEK AUC: 0.93 | (B) AZ161: mTLR4-HEK AUC: 0.99 | (B) AZ902: mTLR4-HEK AUC: 1.55 | (B) GLA: mTLR4-HEK AUC: 14.24

The target of data set [7] is T3, mouse TLR4/MD2 (Mus musculus, UniProt Q9JHF9+Q9QUK6).
T3 construct: host or cells: HEK293
T3 sequence (Q9QUK6 26-835): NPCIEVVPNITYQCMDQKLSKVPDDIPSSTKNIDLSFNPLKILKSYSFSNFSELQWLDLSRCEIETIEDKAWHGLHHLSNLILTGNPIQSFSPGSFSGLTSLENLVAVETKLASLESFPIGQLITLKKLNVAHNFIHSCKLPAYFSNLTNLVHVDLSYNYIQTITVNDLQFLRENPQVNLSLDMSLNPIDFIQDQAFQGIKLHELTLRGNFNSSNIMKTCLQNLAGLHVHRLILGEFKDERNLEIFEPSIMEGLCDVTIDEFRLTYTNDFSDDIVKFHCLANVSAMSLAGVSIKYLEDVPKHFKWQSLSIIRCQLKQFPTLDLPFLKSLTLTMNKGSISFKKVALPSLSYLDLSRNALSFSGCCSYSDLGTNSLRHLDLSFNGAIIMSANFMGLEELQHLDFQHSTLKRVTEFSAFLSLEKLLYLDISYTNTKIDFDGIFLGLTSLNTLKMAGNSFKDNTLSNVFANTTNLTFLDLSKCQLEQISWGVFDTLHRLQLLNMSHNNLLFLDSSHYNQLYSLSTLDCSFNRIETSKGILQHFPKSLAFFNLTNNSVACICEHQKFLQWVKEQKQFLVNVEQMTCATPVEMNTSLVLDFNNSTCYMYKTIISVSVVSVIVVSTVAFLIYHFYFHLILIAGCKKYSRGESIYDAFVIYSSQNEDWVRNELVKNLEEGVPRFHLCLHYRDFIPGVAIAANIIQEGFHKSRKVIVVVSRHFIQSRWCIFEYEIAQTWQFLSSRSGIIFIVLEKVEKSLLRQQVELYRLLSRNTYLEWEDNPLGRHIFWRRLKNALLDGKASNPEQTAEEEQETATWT
T3 sequence (Q9JHF9 19-160): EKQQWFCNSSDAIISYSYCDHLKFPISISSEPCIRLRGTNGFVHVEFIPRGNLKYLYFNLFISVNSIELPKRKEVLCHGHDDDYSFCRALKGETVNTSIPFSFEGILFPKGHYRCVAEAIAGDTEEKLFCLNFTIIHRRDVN
The experiment in a line: mTLR4/MD2-HEK293 transfectant SEAP (QUANTI-Blue) dose response, AUC. The class given is cell-based. As to conditions: 1 μg/ml to 4 ng/ml, 24 h, SEAP OD 650 nm vs log concentration. How it is done: as §1, with “Cells” for “HEK293 cells stably transfected with pNiFty2-SEAP reporter plasmid were transiently transfected with either human or mouse TLR4 (pUNO expression vector), in combination with either human or mouse CD14/MD2 (pDUO expression vector). Transient transfectants were seeded in Dulbecco’s Modified Eagle Medium, FCS 10% (v/v), 2 mM l glutamine and non-essential amino acids. Cells”
as §3

The test system of data set [8] is cytochrome P450 enzymes. The experiment in a line: Inhibition of cytochrome P450 enzymes (unpublished data). The class given is in vitro ADME. As to conditions: compared with earlier-stage, more lipophilic Ugi compounds.

Turning to `CC(C)c1ccc(N(C(=O)c2cc(-c3ccccc3)n(-c3ccccc3)n2)C(C(=O)NC2CCCC2)c2ccc(CC(=O)NO)cc2)cc1` (centres unmarked) [AZ226], in data set [1], the EC50 is 158 nM. The pH-dependent lipophilicity (logD) in data set [2] is over 4.5.
Take `COc1ccc(N(C(=O)c2[nH]c(-c3ccccc3)cc2C)C(C(=O)NC2CCCC2)c2ccncc2)cc1` (centres unmarked) [AZ126, N-(2-(cyclopentylamino)-2-oxo-1-(pyridin-4-yl)ethyl)-N-(4-methoxyphenyl)-3-methyl-5-phenyl-1H-pyrrole-2-carboxamide]: in data set [1], the EC50 was 2510 nM. Also, the hepatocyte CLint in data set [3] (rat) was 28 µL/min/1e6 cells. Further, the microsomal CLint in data set [4] (human) was 56 µL/min/mg. For the same compound, the logD in data set [2] was over 4.5. Also, in data set [5], the concentration in solution (solubility) came to 0.1 µM (≈ 0.0509 µg/mL).
In the case of `O=C(O)Cc1ccc(C(C(=O)NC2CCCC2)N(C(=O)c2cc(-c3ccccc3)n(-c3ccccc3)n2)c2ccc(Cc3ccccc3)cc2)cc1` (centres unmarked) [AZ897], the EC50 in data set [1] was 12.3 nM. This compound also came in with a logD in data set [2] of 4.3.
For the compound `C#Cc1ccc(C(C(=O)N[C@@H](C(=O)O)C(C)C)N(C(=O)c2cc(-c3ccccc3)n(-c3ccccc3)n2)c2ccc(OC)cc2)cc1` (some centres unmarked) [AZ792], the EC50 in data set [1] is 2000 nM.
For the compound `CCCCCCCCCCCCCC(=O)O[C@H](CCCCCCCCCCC)CC(=O)O[C@@H]1[C@@H](NC(=O)C[C@H](CCCCCCCCCCC)OC(=O)CCCCCCCCCCCCC)[C@H](OC[C@H]2O[C@H](O)[C@H](NC(=O)C[C@H](O)CCCCCCCCCCC)[C@@H](OC(=O)C[C@H](O)CCCCCCCCCCC)[C@@H]2O)O[C@H](CO)[C@H]1OP(=O)(O)O` [GLA, glucopyranosyl lipid A, reference compound], in data set [6], the “hTLR4-HEK AUC” value was found to be 3.75. Further, the “mTLR4-HEK AUC” value in data set [7] was determined as 14.24.
With `Cc1cccc(CN(C(=O)c2cc(-c3ccccc3)n(-c3ccccc3)n2)C(C(=O)NC2CCCC2)c2ccc(CC(=O)O)cc2)c1C` (centres unmarked) [AZ839], the EC50 in data set [1] was 25.1 nM. The compound further had a pH-dependent lipophilicity (logD) in data set [2] of 3.62. The “hTLR4-HEK AUC” value in data set [6] worked out at 6.00. Also, the “mTLR4-HEK AUC” value in data set [7] came to 0.93.
Regarding `C#Cc1ccc(C(C(=O)NC2CCCC2)N(C(=O)c2cc(-c3ccccc3)n(-c3ccccc3)n2)c2ccc(OC)cc2)cc1` (centres unmarked) [AZ606], the “increase in potency in the hTLR4-HEK assay” value in data set [1] (relative to AZ126) was determined as 10 fold. Besides, the hepatocyte CLint in data set [3] amounted to 36 µL/min/1e6 cells. For the same compound, in data set [4], the microsomal CLint was determined as 39 µL/min/mg. For the same compound, the logD in data set [2] was over 4.5. The same compound returned a solubility in data set [5] of 2.2 µM (≈ 1.31 µg/mL). Also, the “inhibition of one or more cytochrome P450 enzymes” value in data set [8] is recorded as “greatly reduced”.
As for `C#Cc1ccc(C(C(=O)NC2CCCC2)N(C(=O)c2ccc(-c3ccccc3)[nH]2)c2ccc(OC)cc2)cc1` (centres unmarked) [AZ462], in data set [1], the EC50 was 1000 nM. Besides, the logD in data set [2] was over 4.5.
The matching figures for `COc1ccc(N(C(=O)c2cc(-c3ccccc3)n(-c3ccccc3)n2)C(C(=O)NC2CCCC2)c2ccc(CC(=O)O)cc2)cc1` (centres unmarked) [AZ635]: 100 nM and 2.74.
`CC(C)c1ccc(N(C(=O)c2cc(-c3ccccc3)n(-c3ccccc3)n2)C(C(=O)NC2CCCC2)c2ccc(/C=C/C(=O)O)cc2)cc1` (centres unmarked) [AZ368, (E)-3-(4-(2-(cyclopentylamino)-1-(N-(4-isopropylphenyl)-1,5-diphenyl-1H-pyrazole-3-carboxamido)-2-oxoethyl)phenyl)acrylic acid]: in data set [1], the EC50 was 1.58 nM.
As for `COc1ccc(N(C(=O)c2cc(-c3ccccc3)n(-c3ccccc3)n2)C(C(=O)NC2CCCC2)c2ccncc2)cc1` (centres unmarked) [AZ842], the EC50 in data set [1] is 398 nM. The compound further registered a logD in data set [2] of over 4.5.
